Laboratory results reported in US9062040B2 (priority 2009, dated 2015).
Read-outs that look alike come from different tables or passages of the source.

Columns and labels:
[1] = Stability experiments for solid forms of Compound 1 (temperature and humidity, XRPD); type: physicochemical
Excerpt: The physical stability of polymorph Form A was characterized. […] Samples of Form A exposed to 53, 75, and 85% relative humidity at ambient temperature (10 days) were also unchanged, as determined by XRPD.
The physical stability of polymorph Form B was characterized.
The physical stability of the amorphous material was characterized.

Phytophthora infestans [2] = type: in vivo
Phytophthora infestans [3] = type: in vivo; settings: Table E
[4] = tested on: Pseudoperonospora cubensis; experiment: Test J: cucumber downy mildew, spray before inoculation, cucumber seedlings, mixtures with Colby expected values; type: in vivo; settings: Table C
Excerpt: General protocol for preparing test compositions for Tests I-K: Amisulbrom was formulated and ametoctradin was obtained as unformulated, technical-grade materials. Compound 1 were formulated as an oil dispersion containing a mixture of POE (polyoxyethylene) 40 sorbitol hexaoleate, POE 20 sorbitan trioleate, and alkyl-peg resin surfactants in a liquid carrier consisting of a distilled C18 fatty acid methyl ester. Ametoctradin was first dissolved in acetone and then suspended at the desired concentration (in ppm) in acetone and purified water (50/50 mix by volume) containing 250 ppm of the surfactant Trem® 014 (polyhydric alcohol esters). Amisulbrom was dispersed in sufficient water to give the desired concentration, and neither organic solvent nor surfactant was added to the suspension. The resulting test mixtures were then used in Tests I-K. Spraying a 200 ppm test mixture to the point of run-off on the test plants was the equivalent of a rate of 800 g/ha. The tests were replicated three times and the results reported as the mean average of the three replicates.
The presence of a synergistic effect between two active ingredients was established with the aid of the Colby equation (see Colby, S. R. “Calculating Synergistic and Antagonistic Responses of Herbicide Combinations”, Weeds, (1967), 15, 20-22):
Using the method of Colby, the presence of a synergistic interaction between two active ingredients is established by first calculating the predicted activity, p, of the mixture based on activities of the two components applied alone. If p is lower than the experimentally established effect, synergism has occurred. In the equation above, A is the fungicidal activity in percentage control of one component applied alone at rate x. The B term is the fungicidal activity in percentage control of the second component applied at rate y. The equation estimates p, the expected fungicidal activity of the mixture of A at rate x with B at rate y if their effects are strictly additive and no interaction has occurred.
The test mixture was sprayed to the point of run-off on cucumber seedlings. The following day the seedlings were inoculated with a spore suspension of Pseudoperonospora cubensis (the causal agent of cucumber downy mildew) and incubated in saturated atmosphere at 20° C. for 24 h, and moved to a growth chamber at 20° C. for 6 days, after which time disease ratings were made.
Results for Tests I to K are given in Tables C-E. Each table corresponds to a set of evaluations performed together at the same time. In each table, a rating of 100 indicates 100% disease control and a rating of 0 indicates no disease control (relative to the controls). Columns labeled “Obsd” indicate the average of results observed from three replications. Columns labeled “Exptd” indicate the expected value for each treatment mixture using the Colby equation.

[5] = Relative stability experiments for polymorph Form A and Form B (DSC heat of fusion rule, competitive interconversion); type: physicochemical
Procedure: Differential scanning calorimetry was performed on a Thermal Analysis Q2000 Differential Scanning Calorimeter. A sample (2.3 mg) was placed in an aluminum DSC pan. The sample cell was heated under a nitrogen purge at 10° C./minute. Indium metal was used as the calibration standard.
The relative stability of polymorphic Forms A and B of Compound 1 was characterized with Differential Scanning Calorimetry and a competitive interconversion experiment. Phase transitions of solids can be thermodynamically reversible or irreversible. Crystalline polymorphs which transform reversibly at a specific transition temperature (Ttr) are called enantiotropic polymorphs. If the crystalline polymorphs are not interconvertable, the system is monotropic (i.e. one polymorph is thermodynamically stable relative to the other over the entire temperature range up to melting). The relationship between forms can be determined by the application of the heat of fusion rule (Burger, A.; Ramberger, R. Mikrochim. Acta [Wein], 1979 II, 259-271). The rule states that if the higher melting form has the lower heat of fusion, then the two forms are enantiotropic. Otherwise, they are monotropic.
To support this conclusion, a competitive interconversion experiment between polymorph Forms A and B was performed in ethanol at room temperature. […]

[6] = Table C, component (b) alone 0.08 ppm
[7] = Table C, component (b) alone 0.4 ppm
[8] = Table C, component (b) alone 2 ppm
[9] = Table C, component (b) alone 10 ppm
[10] = Table C, component (b) alone 40 ppm
[11] = Table D, component (b) alone 0.08 ppm
[12] = Table D, component (b) alone 0.4 ppm
[13] = Table D, component (b) alone 2 ppm
[14] = Table D, component (b) alone 10 ppm

Cc1cc(C(F)(F)F)nn1CC(=O)N1CCC(c2nc(C3=NOC(c4c(F)cccc4F)C3)cs2)CC1 (racemic) [polymorph Form A, 1-[4-[4-[5-(2,6-difluorophenyl)-4,5-dihydro-3-isoxazolyl]-2-thiazolyl]-1-piperidinyl]-2-[5-methyl-3-(trifluoromethyl)-1H-pyrazol-1-yl]ethanone]
physical stability by XRPD ([1]; exposed to 53, 75, and 85% relative humidity at ambient temperature (10 days)): unchanged | physical stability by XRPD ([1]; maintained at 40, 60, and 80° C. for 4 days): remained unchanged | stability of the pure solid form (summary of Characterization Example 4) [1]: physically stable and non-hydrated

Cc1cc(C(F)(F)F)nn1CC(=O)N1CCC(c2nc(C3=NOC(c4c(F)cccc4F)C3)cs2)CC1 (racemic) [Compound 1, 1-[4-[4-[5-(2,6-difluorophenyl)-4,5-dihydro-3-isoxazolyl]-2-thiazolyl]-1-piperidinyl]-2-[5-methyl-3-(trifluoromethyl)-1H-pyrazol-1-yl]ethanone]
Test I Obsd (Phytophthora infestans [2]; Table C, Compound 1 alone 0.00001 ppm): 39% | Test I Obsd (Phytophthora infestans [2]; Table C, Compound 1 alone 0.0001 ppm): 63% | Test I Obsd (Phytophthora infestans [2]; Table C, Compound 1 alone 0.001 ppm): 72% | Test I Obsd (Phytophthora infestans [2]; Table C, Compound 1 alone 0.01 ppm): 100% | Test I Obsd (Phytophthora infestans [2]; Table C, Compound 1 alone 0.1 ppm): 100% | Test I Obsd (Phytophthora infestans [2]; Table D, Compound 1 alone 0.00001 ppm): 0% | Test I Obsd (Phytophthora infestans [2]; Table D, Compound 1 alone 0.0001 ppm): 0% | Test I Obsd (Phytophthora infestans [2]; Table D, Compound 1 alone 0.001 ppm): 80% | Test I Obsd (Phytophthora infestans [2]; Table D, Compound 1 alone 0.01 ppm): 93% | Test I Obsd (Phytophthora infestans [2]; Table D, Compound 1 alone 0.1 ppm): 100% | Test K Obsd (Phytophthora infestans [3]; Compound 1 alone 0.001 ppm): 0% | Test K Obsd (Phytophthora infestans [3]; Compound 1 alone 0.01 ppm): 17% | Test K Obsd (Phytophthora infestans [3]; Compound 1 alone 0.1 ppm): 80% | Test K Obsd (Phytophthora infestans [3]; Compound 1 alone 1 ppm): 99% | Test K Obsd (Phytophthora infestans [3]; Compound 1 alone 10 ppm): 100% | Test J Obsd ([4]; Compound 1 alone 0.00001 ppm): 17% | Test J Obsd ([4]; Compound 1 alone 0.0001 ppm): 47% | Test J Obsd ([4]; Compound 1 alone 0.001 ppm): 40% | Test J Obsd ([4]; Compound 1 alone 0.01 ppm): 94% | Test J Obsd ([4]; Compound 1 alone 0.1 ppm): 100%

CCCCCCCCc1c(CC)nc2ncnn2c1N [Ametoctradin, ametoctradin]
Test I Obsd (Phytophthora infestans [2]; [6]): 8% | Test I Obsd (Phytophthora infestans [2]; [7]): 23% | Test I Obsd (Phytophthora infestans [2]; [8]): 63% | Test I Obsd (Phytophthora infestans [2]; [9]): 83% | Test I Obsd (Phytophthora infestans [2]; [10]): 83% | Test I Obsd (Phytophthora infestans [2]; [11]): 9% | Test I Obsd (Phytophthora infestans [2]; [12]): 0% | Test I Obsd (Phytophthora infestans [2]; [13]): 0% | Test I Obsd (Phytophthora infestans [2]; [14]): 94% | Test I Obsd (Phytophthora infestans [2]; Table D, component (b) alone 40 ppm): 93% | Test K Obsd (Phytophthora infestans [3]; component (b) alone 0.4 ppm): 0% | Test K Obsd (Phytophthora infestans [3]; component (b) alone 2 ppm): 0% | Test K Obsd (Phytophthora infestans [3]; component (b) alone 10 ppm): 0% | Test K Obsd (Phytophthora infestans [3]; component (b) alone 40 ppm): 0% | Test K Obsd (Phytophthora infestans [3]; component (b) alone 200 ppm): 0% | Test J Obsd ([4]; component (b) alone 0.08 ppm): 0% | Test J Obsd ([4]; component (b) alone 0.4 ppm): 0% | Test J Obsd ([4]; component (b) alone 2 ppm): 0% | Test J Obsd ([4]; component (b) alone 10 ppm): 26% | Test J Obsd ([4]; component (b) alone 40 ppm): 95%

Cc1c(Br)c2ccc(F)cc2n1S(=O)(=O)c1ncn(S(=O)(=O)N(C)C)n1 [Amisulbrom, amisulbrom]
Test I Obsd (Phytophthora infestans [2]; [6]): 57% | Test I Obsd (Phytophthora infestans [2]; [7]): 52% | Test I Obsd (Phytophthora infestans [2]; [8]): 82% | Test I Obsd (Phytophthora infestans [2]; [9]): 100% | Test I Obsd (Phytophthora infestans [2]; [10]): 100% | Test I Obsd (Phytophthora infestans [2]; Table D, component (b) alone 0.016 ppm): 0% | Test I Obsd (Phytophthora infestans [2]; [11]): 9% | Test I Obsd (Phytophthora infestans [2]; [12]): 63% | Test I Obsd (Phytophthora infestans [2]; [13]): 85% | Test I Obsd (Phytophthora infestans [2]; [14]): 86% | Test K Obsd (Phytophthora infestans [3]; component (b) alone 0.4 ppm): 0% | Test K Obsd (Phytophthora infestans [3]; component (b) alone 2 ppm): 0% | Test K Obsd (Phytophthora infestans [3]; component (b) alone 10 ppm): 0% | Test K Obsd (Phytophthora infestans [3]; component (b) alone 40 ppm): 0% | Test K Obsd (Phytophthora infestans [3]; component (b) alone 200 ppm): 0% | Test J Obsd ([4]; component (b) alone 0.08 ppm): 0% | Test J Obsd ([4]; component (b) alone 0.4 ppm): 0% | Test J Obsd ([4]; component (b) alone 2 ppm): 95% | Test J Obsd ([4]; component (b) alone 10 ppm): 100% | Test J Obsd ([4]; component (b) alone 40 ppm): 100%

Cc1cc(C(F)(F)F)nn1CC(=O)N1CCC(c2nc(C3=NOC(c4c(F)cccc4F)C3)cs2)CC1 (racemic) [polymorph Form B, 1-[4-[4-[5-(2,6-difluorophenyl)-4,5-dihydro-3-isoxazolyl]-2-thiazolyl]-1-piperidinyl]-2-[5-methyl-3-(trifluoromethyl)-1H-pyrazol-1-yl]ethanone]
physical stability by XRPD ([1]; exposed to 85% relative humidity at ambient temperature (10 days)): unchanged | physical stability by XRPD ([1]; maintained at 40° C. and 25° C. for 4 days): remained unchanged | relative stability by heat of fusion rule from DSC data ([5]; DSC data of Characterization Example 3, forms monotropically related): most stable form throughout the temperature range up to the melt | relative stability, competitive interconversion experiment ([5]; equal amounts of Forms A and B in saturated ethanol, room temperature, stirred 4 days, solids identified by XRPD): more stable than polymorph Form A

Cc1cc(C(F)(F)F)nn1CC(=O)N1CCC(c2nc(C3=NOC(c4c(F)cccc4F)C3)cs2)CC1 (stereo not drawn) [Amorphous Compound 1, 1-[4-[4-[5-(2,6-difluorophenyl)-4,5-dihydro-3-isoxazolyl]-2-thiazolyl]-1-piperidinyl]-2-[5-methyl-3-(trifluoromethyl)-1H-pyrazol-1-yl]ethanone]
physical stability by XRPD ([1]; elevated temperatures (60, 80 and 100° C.) and humidities (75 and 85% relative humidity) for 10-12 days): remained unchanged | stability of the pure solid form (summary of Characterization Example 4) [1]: stable and non-hydrated
